{"source": "patent US7592023B2", "about": "“Transplant media” (Trophic Solutions LLC, priority 2000, dated 2009)", "key": {"[1]": {"tested_on": "MDCK cells", "assay": "cytoskeletal structure (actin and tubulin antibodies, confocal fluorescence microscopy) after cold storage, MDCK cells", "type": "cell-based", "settings": "three days at cold temperatures", "excerpt": "(§1) This Example describes the effect UW solution supplemented with BNP-1 on cytoskeletal structure of kidney cells. Briefly, either MDCK cells or primary kidney cell cultures were stored for three days at cold temperatures in either UW solution, UW solution supplemented with BNP-1, or DMEM. The cells were then labeled with actin and tubulin antibodies and analyzed by confocal fluorescence microscopy. […] In these primary cells, the actin and tubulin filaments maintained a coarse clumpy pattern with considerable cortical condensation near the plasma membrane and only a limited amount of fine fibrillar structure that would be considered more normal."}, "[2]": {"tested_on": "primary kidney cell cultures", "assay": "cytoskeletal structure (actin and tubulin antibodies, confocal fluorescence microscopy) after cold storage, primary kidney cell cultures", "type": "cell-based", "settings": "three days at cold temperatures", "excerpt": "as §1"}, "[3]": {"tested_on": "bacteria, fungi, and enveloped viruses", "settings": "cited from earlier work"}, "[4]": {"tested_on": "panel of organisms in stationary growth phase", "settings": "cited from earlier work"}}}
{"substance": "BNP-1: bovine defensin peptide, SEQ ID NO: 37, rlcrivvirvcr; synthesized by Multiple Peptide Systems (RLCRIVVIRVCR; listed as Bos taurus)", "values": [{"measurement": "actin and tubulin after storage", "setting": "[1]", "result": "better maintenance of actin and tubulin"}, {"measurement": "actin and tubulin after storage", "setting": "[2]", "result": "the tubulin and actin were better stained and more persistent"}]}
{"substance": "GPNP: guinea pig defensin, rrcicttrtcrfpyrrlgtcifqnrvytfcc (RRCICTTRTCRFPYRRLGTCIFQNRVYTFCC; Guinea pig cytomegalovirus)", "values": [{"measurement": "spectrum of antimicrobial activity", "setting": "[3]", "result": "broad spectrum antimicrobial properties verified"}]}
{"substance": "HNP-1: defensin isolated from human PMN's, acycripaciagerrygtciyqgrlwafcc", "values": [{"measurement": "antimicrobial properties, rank among defensins tested", "setting": "[4]", "result": "most potent antimicrobial properties"}]}
{"substance": "rabbit NP-1: rabbit neutrophil defensin, vvcacrralclprerragfcrirgrihplccrr (VVCACRRALCLPRERRAGFCRIRGRIHPLCCRR; listed as Oryctolagus cuniculus)", "values": [{"measurement": "antimicrobial properties, rank among defensins tested", "setting": "[4]", "result": "most potent antimicrobial properties"}]}
